Measurements from patent US20100256090A1, “Alginic Acid with Low Molecular Weight, Its Salts, Uses, Preparative Methods, Pharmaceutical Compositions and Foods” (priority 2007, published 2010).

What was measured:
[1] = test system: hypertension subjects; assay: Clinical Example 1: blood pressure of hypertension subjects after oral granule or enteric capsule; assay type: in vivo, human
Source text: This clinical example explains the effects of the low molecular weight alginate salts of the present invention and the effects of the low molecular weight alginate salts of the comparative example in improving hypertension.
Male and female hypertension subjects without other disease were selected, 360 for each sex, aged from 38 to 62 with an average age of 48, whose systolic blood pressure (SBP)(s) were from 155 to 165 mmHg and diastolic blood pressure (DBP)(s) were from 100 to 125 mmHg, said SBP(s) and DBP(s) were measured in resting state. The subjects were randomly grouped, 30 subjects for each group, and orally took granule of low molecular weight potassium alginate or enteric capsule of alginic acid with low molecular weight 1 to 3 times per day with a daily dose of 50 to 200 mg/Kg according to Table 2, and blood pressures before and 24 hours after administration were measured. The granule of low molecular weight potassium alginate was prepared in the following way: potassium alginate was prepared using the alginic acid with low molecular weight according to examples 1 to 10 or comparative example 1, and then the potassium alginate was prepared into granule according to the method of example 11 or comparative example 2. The enteric capsule of alginic acid with low molecular weight was prepared according to the method of example 11 or comparative example 2. Criterion of therapeutical effect made by China Hypertension League was referred to, that is, the systolic blood pressure reduces by more than 15 mmHg and the diastolic blood pressure reduces by more than 10 mmHg 24 hours after the administration.

[2] = test system: hypertension subjects; assay: Clinical Example 7: blood pressure of hypertension subjects taking milk powder with potassium alginate; assay type: in vivo, human; conditions: conclusion from Table 8, one month use of milk powder
Procedure: This clinical example explains the effects of the low molecular weight alginate salt of the present invention and the effects of the low molecular weight alginate salt of the comparative example in reducing hypertension when they are added into milk powder.
Fresh milk containing 8 wt % of solid content was added with potassium alginate until the content of the potassium alginate reached 25 wt % in term of the solid content weight, the milk was then spray dried at 150° C. to obtain a milk powder.
Male and female hypertension subjects without other disease were selected, 48 for each sex, aged from 40 to 65 with an average age of 54, whose SBP(s) were from 145 to 155 mmHg and DBP(s) were from 120 to 125 mmHg, said SBP(s) and DBP(s) were measured in resting state. The subjects were randomly grouped, 8 subjects for each group, and took the milk power after infusing it, wherein the daily dose of potassium alginate reached 10 to 30 mg/Kg and the milk power was taken continuously for one month.

[3] = test system: Male Wister rats feed with high lipid diet; assay: Clinical Example 6: prevention of blood lipid increase in rats on high lipid diet; assay type: in vivo; conditions: conclusion from Table 7, one month
Procedure: This clinical example explains the effects of the low molecular weight alginate salt of the present invention and the effects of the low molecular weight alginate salt of the comparative example in preventing increase of blood lipid when they are added into high lipid diet.
Male Wister rats weighted from 180 to 200 g were randomly divided into 13 groups, 8 for each group, wherein one group was designated as a blank group and feed with normal diet, one group was designated as a control group and feed with a high lipid diet comprising 1 wt % of cholesterol, 0.5 wt % of cholate, 10 wt % of lard oil and 10 wt % of yolk, and the remaining groups were feed with the high lipid diet and were given through stomach the potassium alginate aqueous solution according to the present invention for three times every day such that the daily intake of potassium alginate for each rat reached […]. After one month of feeding, lipoprotein in serum, total cholesterol (TC), triglyeride (TG), high density lipoprotein cholesterol (HDL-C) and low density lipoprotein cholesterol as well as very low density lipoprotein cholesterol [(LDL+VLDL)-C] were measured using enzymatic methods commonly used in the clinic (for example, CHOD-PAP to measure TC and GPO-PAP to measure TG), and the results are shown in Table 7.

Compound	effective rate ([1]; effective: SBP reduces by more than 15 mmHg and DBP by more than 10 mmHg 24 hours after administration, oral) [%]	average SBP before administration ([1]; first number of SBP/DBP, baseline, resting state, hypertension subjects, 30 per group) [mmHg]	average SBP after administration 24 h ([1]; first number of SBP/DBP, oral, 1 to 3 times per day, daily dose 50 to 200 mg/Kg per Table 2, 24 hours after administration) [mmHg]	average DBP before administration ([1]; second number of SBP/DBP, baseline, resting state, hypertension subjects, 30 per group) [mmHg]	average DBP after administration 24 h ([1]; second number of SBP/DBP, oral, 1 to 3 times per day, daily dose 50 to 200 mg/Kg per Table 2, 24 hours after administration) [mmHg]	blood pressure reducing effect (in words) [2]	blood lipid increase preventing effect (in words) [3]
NS(=O)(=O)c1cc2c(cc1Cl)NCNS2(=O)=O [Positive Control, Hydrochlorothiazide]	70.1	162	121	118	95	–	–
alginic acid with low molecular weight [Comparative Example 1]	–	–	–	–	–	inferior	inferior
